Assay results from patent EP0975634B1, “FUNGICIDAL TRIFLUOROPHENYL-TRIAZOLOPYRIMIDINES” (BASF AKTIENGESELLSCHAFT, priority 1997, dated 1998).
Values after ≈ are worked out from the molar mass of the structure shown. Where two headings read alike, the source gives them in different places.

What was measured:
[1] = tested on: Altemaria solani; experiment: organism not typed; type: cell-based; details: for MIC: read-out: MIC (Minimum Inhibitory Concentration) ALTESO
[2] = tested on: Botrytis cinerea; experiment: microbe, parasite or virus in culture; type: cell-based; details: for MIC: Botrytis cinerea, read-out: MIC (Minimum Inhibitory Concentration) BOTRCI
[3] = tested on: Leptosphaeria nodorum; experiment: Minimum Inhibitory Concentration, serial dilution test; type: cell-based; details: for MIC: Parastagonospora nodorum, read-out: MIC (Minimum Inhibitory Concentration) LEPTNO
[4] = tested on: Phytophthora infestans; experiment: microbe, parasite or virus in culture; type: cell-based; details: for MIC: Phytophthora infestans, read-out: MIC (Minimum Inhibitory Concentration) PHYTIN; for MIC (Minimum Inhibitory Concentration) PHYTIN: total inhibition of mycelial growth, V8 nutrient solution, 6-12 days incubation at 18-25°C, visual inspection
[5] = tested on: Magnaporthe grisea f. sp. Oryzae; experiment: microbe, parasite or virus in culture; type: cell-based; details: for MIC: Pyricularia oryzae, read-out: MIC (Minimum Inhibitory Concentration) PYRIOR; for MIC (Minimum Inhibitory Concentration) PYRIOR: total inhibition of mycelial growth, V8 nutrient solution, 6-12 days incubation at 18-25°C, visual inspection
[6] = tested on: Pyrenophora teres; experiment: Minimum Inhibitory Concentration, serial dilution test; type: cell-based; details: for MIC: Pyrenophora teres, read-out: MIC (Minimum Inhibitory Concentration) PYRNTE
[7] = tested on: Uncinula necator; experiment: Control of powdery mildew on grapes, prophylactic greenhouse test; type: in vivo; details: grape cultivar Müller-Thurgau, application 3 days before infection, evaluation 21 days after infection; for activity at 3.13 ppm / activity at 6.25 ppm / activity at 12.5 ppm / activity at 25 ppm: Erysiphe necator, read-out: % activity (ABBOTT formula)
[8] = tested on: Rhizoctonia solani; experiment: Minimum Inhibitory Concentration, serial dilution test; type: cell-based; details: for MIC: Rhizoctonia solani, read-out: MIC (Minimum Inhibitory Concentration) RHISZO
[9] = total inhibition of mycelial growth, V8 nutrient solution, 6-12 days incubation at 18-25°C, visual inspection

Compound	MIC [1]	MIC [2]	MIC [3, 9]	MIC [5]	MIC [6, 9]	activity at 3.13 ppm ([7]; Concentration 3.13 ppm)	activity at 6.25 ppm ([7]; Concentration 6.25 ppm)	activity at 12.5 ppm ([7]; Concentration 12.50 ppm)	activity at 25 ppm ([7]; Concentration 25.00 ppm)	MIC (Minimum Inhibitory Concentration) ALTESO [1]	MIC (Minimum Inhibitory Concentration) BOTRCI [2]	MIC (Minimum Inhibitory Concentration) PHYTIN [4]	MIC (Minimum Inhibitory Concentration) PYRIOR [5]	other results
CC1CCN(c2c(-c3c(F)cc(F)cc3F)c(Cl)nc3ncnn23)CC1 [Example 2, 5-chloro-7-(4-methylpiperidin-1-yl)-6-(2,4,6-trifluorophenyl)-[1,2,4]triazolo[1,5-a]pyrimidine]	40 µg/mL (≈ 0.105 mM)	100 µg/mL (≈ 0.262 mM)	6250 µg/mL (≈ 16.4 mM)	40 µg/mL (≈ 0.105 mM)	200 µg/mL (≈ 0.524 mM)	100%	100%	100%	100%					MIC [4]: 100000 µg/mL (≈ 262 mM)
Fc1cc(F)c(-c2c(Cl)nc3ncnn3c2NC2CC3CCC2C3)c(F)c1 (stereo not shown) [Example 11, 5-chloro-7-(N-norborn-2-ylamino)-6-(2,4,6-trifluorophenyl)-[1,2,4]triazolo[1,5-a]pyrimidine]						64%	93%	100%	100%					
Fc1cc(F)c(-c2c(Cl)nc3ncnn3c2NCC(F)(F)F)c(F)c1 [Example 12, 5-chloro-7-(N-2,2,2-trifluoroethylamino)-6-(2,4,6-trifluorophenyl)-[1,2,4]triazolo[1,5-a]pyrimidine]	1560 µg/mL (≈ 4.09 mM)	1560 µg/mL (≈ 4.09 mM)	6250 µg/mL (≈ 16.4 mM)	200 µg/mL (≈ 0.524 mM)	6250 µg/mL (≈ 16.4 mM)	97%	100%	100%	100%					MIC [4]: 25000 µg/mL (≈ 65.5 mM); MIC [8, 9]: 6250 µg/mL (≈ 16.4 mM)
CC(C)CN(CC(F)(F)F)c1c(-c2c(F)cc(F)cc2F)c(Cl)nc2ncnn12 [Example 26, 5-chloro-7-(N-2-methylpropyl-N-2,2,2-trifluoroethylamino)-6-(2,4,6-trifluorophenyl)-[1,2,4]triazolo[1,5-a]pyrimidine]	200 µg/mL (≈ 0.457 mM)	200 µg/mL (≈ 0.457 mM)	390 µg/mL (≈ 0.891 mM)	40 µg/mL (≈ 0.0914 mM)		0%	14%	22%	27%					MIC [8, 9]: 3130 µg/mL (≈ 7.15 mM)
CN(CC(F)(F)F)c1c(-c2c(F)cc(F)cc2F)c(Cl)nc2ncnn12 [Example 27, 5-chloro-7-(N-methyl-N-2,2.2-trifluoroethylamino)-6-(2,4,6-trifluorophenyl)-[1,2,4]triazolo[1,5-a]-pyrimidine]										780 µg/mL (≈ 1.97 mM)	3130 µg/mL (≈ 7.91 mM)	110000 µg/mL (≈ 278 mM)	100 µg/mL (≈ 0.253 mM)	MIC (Minimum Inhibitory Concentration) LEPTNO [3, 9]: 50000 µg/mL (≈ 126 mM); MIC (Minimum Inhibitory Concentration) PYRNTE [6, 9]: 12500 µg/mL (≈ 31.6 mM); MIC (Minimum Inhibitory Concentration) RHISZO [8, 9]: 1560 µg/mL (≈ 3.94 mM); % activity (ABBOTT formula) ([7]; Concentration 3.13 ppm): 0%; % activity (ABBOTT formula) ([7]; Concentration 6.25 ppm): 0%; % activity (ABBOTT formula) ([7]; Concentration 12.50 ppm): 11%; % activity (ABBOTT formula) ([7]; Concentration 25.00 ppm): 17%
CC(Nc1c(-c2c(F)cc(F)cc2F)c(Cl)nc2ncnn12)C(F)(F)F (stereo not shown) [Example 28, 5-chloro-7-[N-2-(1,1,1-trifluoropropyl)-amino]-6-(2,4,6-trifluorophenyl)-[1,2,4]triazolo[1,5-a]pyrimidine]										780 µg/mL (≈ 1.97 mM)	3130 µg/mL (≈ 7.91 mM)	110000 µg/mL (≈ 278 mM)	780 µg/mL (≈ 1.97 mM)	MIC (Minimum Inhibitory Concentration) LEPTNO [3, 9]: 3130 µg/mL (≈ 7.91 mM); MIC (Minimum Inhibitory Concentration) PYRNTE [6, 9]: 6250 µg/mL (≈ 15.8 mM); MIC (Minimum Inhibitory Concentration) RHISZO [8, 9]: 3130 µg/mL (≈ 7.91 mM); % activity (ABBOTT formula) ([7]; Concentration 3.13 ppm): 97%; % activity (ABBOTT formula) ([7]; Concentration 6.25 ppm): 100%; % activity (ABBOTT formula) ([7]; Concentration 12.50 ppm): 100%; % activity (ABBOTT formula) ([7]; Concentration 25.00 ppm): 100%
C[Si](C)(C)CN(CC(F)(F)F)c1c(-c2c(F)cc(F)cc2F)c(Cl)nc2ncnn12 [Example 40, 5-chloro-7-[N-(2.2,2-trifluoroethyl)-N-(trimethylsiiylmethyl)-amino]-6-(2.4,6-trifiuorophenyl)-[1,2,4]triazolo[1,5-a]pyrimidine]										780 µg/mL (≈ 1.67 mM)	6250 µg/mL (≈ 13.4 mM)	25000 µg/mL (≈ 53.4 mM)	1560 µg/mL (≈ 3.33 mM)	MIC (Minimum Inhibitory Concentration) LEPTNO [3]: 110000 µg/mL (≈ 235 mM); MIC (Minimum Inhibitory Concentration) PYRNTE [6]: 25000 µg/mL (≈ 53.4 mM); MIC (Minimum Inhibitory Concentration) RHISZO [8]: 110000 µg/mL (≈ 235 mM)
OC1CCCN(c2c(-c3c(F)cc(F)cc3F)c(Cl)nc3ncnn23)C1 (stereo not shown) [Example 41, 5-chloro-7-(3-hydroxypiperidin-1-yl)-6-(2,4,6-trifluorophenyl)-[1,2,4]triazolo[1,5-a]-pyrimidine]	6250 µg/mL (≈ 16.3 mM)	100000 µg/mL (≈ 261 mM)	50000 µg/mL (≈ 130 mM)	12500 µg/mL (≈ 32.6 mM)	25000 µg/mL (≈ 65.1 mM)									
Fc1cc(F)c(-c2c(Cl)nc3ncnn3c2NC(c2ccccc2)C(F)(F)F)c(F)c1 (stereo not shown) [Example 52, 5-chloro-7-[N-(1-phenyl-2,2,2-trifluoroethyl)-amino]-6-(2,4,6-trifluorophenyl)-[1,2,4]triazolo[1,5-a]pyrimidine]	3130 µg/mL (≈ 6.84 mM)	12500 µg/mL (≈ 27.3 mM)		1560 µg/mL (≈ 3.41 mM)	3130 µg/mL (≈ 6.84 mM)									
CC(C)CCN(C)c1c(-c2c(F)cc(F)cc2F)c(Cl)nc2ncnn12 [Example 54, 5-chloro-7-[N-(3-methylbutyl)-N-methylamino]-6-(2,4,6-trifluorophenyl)-[1,2,4]triazolo[1,5-a]pyrimidine]	780 µg/mL (≈ 2.03 mM)	3130 µg/mL (≈ 8.16 mM)	12500 µg/mL (≈ 32.6 mM)	40 µg/mL (≈ 0.104 mM)	3130 µg/mL (≈ 8.16 mM)									
CC(C)C(Nc1c(-c2c(F)cc(F)cc2F)c(Cl)nc2ncnn12)C(F)(F)F (stereo not shown) [Example 55, 5-chloro-7-[N-2-(3-methyl-1,1,1-trifluorobutyl)-amino]-6-(2,4,6-trifluorophenyl)-[1,2,4]triazolo[1,5-a]-pyrimidine]										390 µg/mL (≈ 0.92 mM)	1560 µg/mL (≈ 3.68 mM)	100000 µg/mL (≈ 236 mM)	40 µg/mL (≈ 0.0944 mM)	MIC (Minimum Inhibitory Concentration) LEPTNO [3, 9]: 1560 µg/mL (≈ 3.68 mM); MIC (Minimum Inhibitory Concentration) PYRNTE [6, 9]: 6250 µg/mL (≈ 14.7 mM); MIC (Minimum Inhibitory Concentration) RHISZO [8, 9]: 12500 µg/mL (≈ 29.5 mM)
CCCC(Nc1c(-c2c(F)cc(F)cc2F)c(Cl)nc2ncnn12)C(C)C (stereo not shown) [Example 57, 5-chloro-7-[3-(2-methylhexyl)-amino]-6-(2,4,6-trifluorophenyl)-[1,2,4]triazolo[5-a]-pyrimidine]										200 µg/mL (≈ 0.503 mM)	390 µg/mL (≈ 0.98 mM)	110000 µg/mL (≈ 276 mM)	40 µg/mL (≈ 0.101 mM)	MIC (Minimum Inhibitory Concentration) LEPTNO [3, 9]: 780 µg/mL (≈ 1.96 mM); MIC (Minimum Inhibitory Concentration) PYRNTE [6, 9]: 3130 µg/mL (≈ 7.87 mM); MIC (Minimum Inhibitory Concentration) RHISZO [8, 9]: 110000 µg/mL (≈ 276 mM)
OC(c1ccc(Cl)cc1)(c1cncnc1)c1ccccc1Cl (stereo not shown) [Fenarimol, reference compound]						31%	75%	95%	99%					
CCCC(Cn1cncn1)c1ccc(Cl)cc1Cl (stereo not shown) [Penconazole, reference compound]						11%	17%	31%	58%					
CC1CCN(c2c(-c3c(F)cccc3Cl)c(Cl)nc3ncnn23)CC1 [standard^1, 5-chloro-7-(4-methylpiperidin-1-yl)-6-(2-chloro-6-fluorophenyl)-[1,2,4]triazolo[1,5-a]pyrimidine, reference compound]						31%	42%	44%	73%					
